Data taken from patent publication US9163256B2, “Mutant receptors and their use in a nuclear receptor-based inducible gene expression system” (priority 2004, dated 2015).
Like-named read-outs stand apart in the source and are kept apart here.

What was measured:
Experiment in all cases: cell-based
CfEcR-DEF mutant A110P = CfEcR-DEF mutant A110P (Choristoneura fumiferana, UniProt O77255, A393P)
In short: (§1)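 Mutant CfEcR-DEF receptor and GAL4-driven luciferase reporter constructs transfected into mouse NIH3T3 cells with DMSO or ligand added; maintained 48 h at 37° C in 5% FBS, harvested 40 h after ligand addition. Dual-luciferase read-out; fold induction = RLU with ligand / RLU with DMSO.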

CfEcR-DEF mutant A110W = CfEcR-DEF mutant A110W (Choristoneura fumiferana, UniProt O77255, A393W)
In short: as §1

CfEcR-DEF mutant F109L = CfEcR-DEF mutant F109L (Choristoneura fumiferana, UniProt O77255, F392L)
In short: as §1

CfEcR-DEF mutant L234I = CfEcR-DEF mutant L234I (Choristoneura fumiferana, UniProt O77255, L517I)
In short: as §1

CfEcR-DEF mutant M125C = CfEcR-DEF mutant M125C (Choristoneura fumiferana, UniProt O77255, M408C)
In short: as §1

CfEcR-DEF mutant M125L = CfEcR-DEF mutant M125L (Choristoneura fumiferana, UniProt O77255, M408L)
In short: as §1

CfEcR-DEF mutant M54T = CfEcR-DEF mutant M54T (Choristoneura fumiferana, UniProt O77255, M337T)
In short: as §1

CfEcR-DEF mutant M54W = CfEcR-DEF mutant M54W (Choristoneura fumiferana, UniProt O77255, M337W)
In short: as §1

CfEcR-DEF mutant M92E = CfEcR-DEF mutant M92E (Choristoneura fumiferana, UniProt O77255, M375E)
In short: as §1

CfEcR-DEF mutant M92L = CfEcR-DEF mutant M92L (Choristoneura fumiferana, UniProt O77255, M375L)
In short: as §1

CfEcR-DEF mutant R95H = CfEcR-DEF mutant R95H (Choristoneura fumiferana, UniProt O77255, R378H)
In short: as §1

CfEcR-DEF mutant T52E = CfEcR-DEF mutant T52E (Choristoneura fumiferana, UniProt O77255, T335E)
In short: as §1

CfEcR-DEF mutant T52L = CfEcR-DEF mutant T52L (Choristoneura fumiferana, UniProt O77255, T335L)
In short: as §1

CfEcR-DEF mutant V96S = CfEcR-DEF mutant V96S (Choristoneura fumiferana, UniProt O77255, V379S)
In short: as §1

CfEcR-DEF mutant W238P = CfEcR-DEF mutant W238P (Choristoneura fumiferana, UniProt O77255, W521P)
In short: as §1

CfEcR-DEF mutant Y120W = CfEcR-DEF mutant Y120W (Choristoneura fumiferana, UniProt O77255, Y403W)
In short: as §1

CfEcR-DEF mutant A110N = CfEcR-DEF mutant A110N (Choristoneura fumiferana, UniProt O77255, A393N)
Procedure: (§2) This construct was prepared in the same way as in switch 1.1 above except wild-type CfEcR-DEF was replaced with mutant CfEcR-DEF comprising a ligand binding domain comprising a substitution mutation selected from Table 1 below.
(§3) DNAs were transfected into mouse NIH3T3 cells (ATCC) as follows. Standard methods for culture and maintenance of the cells were followed. Cells were harvested and plated 96-well plates at 2,500 cells per well, in 50 μL of growth medium containing 10% fetal bovine serum (FBS). Twenty-four hours later, the cells were treated with 35 μL of serum-free growth medium containing either dimethylsulfoxide (DMSO; control) or a DMSO solution of ligand. The cells were then transfected using Superfect (Qiagen Inc.) transfection reagent. For each well, 0.625 μL of Superfect was mixed with 14.2 μL of serum-free growth medium. 0.16 μg of reporter construct and 0.04 μg of each receptor construct were added to the transfection reagent mix. The contents of the transfection mix were mixed in a vortex mixer and let stand at room temperature for 30 minutes. At the end of incubation, 15 μL of transfection mix was added to the cells. The cells were maintained at 37° C. and 5% CO2 for 48 hours in 5% FBS.
(§4) Reporter Assays: Cells were harvested 40 hours after adding ligands. 125 μL of passive lysis buffer (part of Dual-Luciferase reporter assay system from Promega Corporation) were added to each well of the […] plate. The plates were placed on a rotary shaker for 15 minutes. Twenty μL of lysate were assayed. Luciferase activity was measured using Dual-Luciferase reporter assay system from Promega Corporation following the manufacturer's instructions. Fold induction (FI) activities were calculated by dividing relative light units (“RLU”) in ligand treated cells with RLU in DMSO treated cells (untreated control).

CfEcR-DEF mutant W238E = CfEcR-DEF mutant W238E (Choristoneura fumiferana, UniProt O77255, W521E)
Procedure: as §2, §3, §4

CfEcR-DEF mutant L132M = CfEcR-DEF mutant L132M (Choristoneura fumiferana, UniProt O77255, L415M); type: cell-based; settings: for Emax: NIH3T3, 40 h, read-out: Rel Max FI, mutant L132M
Procedure: as §2, §3, §4

[1] = molecular target: CfEcR-DEF mutant V128F/A110P (Choristoneura fumiferana, UniProt O77255, A393P/V411F); settings: mutant V128F/A110P
In short: as §1

[2] = NIH3T3, 40 h, read-out: Rel Max FI
[3] = relative to max fold induction of GS-E ligand

Chain of CfEcR-DEF mutant M125C (O77255 entry or part of it M408C): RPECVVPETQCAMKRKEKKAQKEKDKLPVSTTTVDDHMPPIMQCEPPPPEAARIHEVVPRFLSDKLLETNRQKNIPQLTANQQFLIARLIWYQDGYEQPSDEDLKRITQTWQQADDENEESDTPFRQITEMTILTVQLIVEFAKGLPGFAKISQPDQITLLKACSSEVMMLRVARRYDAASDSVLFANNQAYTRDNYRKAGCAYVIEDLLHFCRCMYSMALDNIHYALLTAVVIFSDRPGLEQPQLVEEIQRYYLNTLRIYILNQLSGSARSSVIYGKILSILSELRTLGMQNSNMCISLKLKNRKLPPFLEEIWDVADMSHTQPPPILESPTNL
Chain of CfEcR-DEF mutant M125C (P28702 299-449, further chain): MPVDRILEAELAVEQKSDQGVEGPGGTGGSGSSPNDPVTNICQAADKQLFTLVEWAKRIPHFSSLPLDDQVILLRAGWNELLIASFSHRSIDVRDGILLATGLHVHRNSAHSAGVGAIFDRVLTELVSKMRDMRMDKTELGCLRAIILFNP
Chain of CfEcR-DEF mutant V128F/A110P (P28702 299-449, stated change not applied): as the sequence (P28702 299-449, further chain) above
Chain of CfEcR-DEF mutant V128F/A110P (O77255 entry or part of it A393P/V411F): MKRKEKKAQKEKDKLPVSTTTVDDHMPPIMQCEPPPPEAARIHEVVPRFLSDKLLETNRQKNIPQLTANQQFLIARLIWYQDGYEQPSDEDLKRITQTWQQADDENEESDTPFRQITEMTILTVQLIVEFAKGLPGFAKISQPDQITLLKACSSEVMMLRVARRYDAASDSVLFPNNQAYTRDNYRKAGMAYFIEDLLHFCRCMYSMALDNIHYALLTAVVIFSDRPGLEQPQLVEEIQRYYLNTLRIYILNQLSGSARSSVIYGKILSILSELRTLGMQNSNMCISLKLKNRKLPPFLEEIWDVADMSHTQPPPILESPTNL
Chain of CfEcR-DEF mutant M92E (P28702 299-449): as the sequence (P28702 299-449, further chain) above
Chain of CfEcR-DEF mutant M92E (O77255 entry or part of it M375E): as the sequence (O77255 entry or part of it M408C) above, with M169E, C202M counted along it
Chain of CfEcR-DEF mutant W238E (P28702 299-449): as the sequence (P28702 299-449, further chain) above
Chain of CfEcR-DEF mutant W238E (O77255 entry or part of it W521E): as the sequence (O77255 entry or part of it A393P/V411F) above, with P175A, F193V, W303E counted along it
Chain of CfEcR-DEF mutant F109L (P28702 299-449): as the sequence (P28702 299-449, further chain) above
Chain of CfEcR-DEF mutant F109L (O77255 entry or part of it F392L): as the sequence (O77255 entry or part of it M408C) above, with F186L, C202M counted along it
Chain of CfEcR-DEF mutant W238P (P28702 299-449): as the sequence (P28702 299-449, further chain) above
Chain of CfEcR-DEF mutant W238P (O77255 entry or part of it W521P): as the sequence (O77255 entry or part of it A393P/V411F) above, with P175A, F193V, W303P counted along it
Chain of CfEcR-DEF mutant L234I (P28702 299-449): as the sequence (P28702 299-449, further chain) above
Chain of CfEcR-DEF mutant L234I (O77255 entry or part of it L517I): as the sequence (O77255 entry or part of it M408C) above, with C202M, L311I counted along it
Chain of CfEcR-DEF mutant A110W (P28702 299-449, stated change not applied): as the sequence (P28702 299-449, further chain) above
Chain of CfEcR-DEF mutant A110W (O77255 entry or part of it A393W): as the sequence (O77255 entry or part of it M408C) above, with A187W, C202M counted along it
Chain of CfEcR-DEF mutant R95H (P28702 299-449): as the sequence (P28702 299-449, further chain) above
Chain of CfEcR-DEF mutant R95H (O77255 entry or part of it R378H): as the sequence (O77255 entry or part of it A393P/V411F) above, with R160H, P175A, F193V counted along it

Cc1cc(C)cc(C(=O)N(NC(=O)c2cccc(C(C)C)c2C)C(C)(C)C)c1 [RG-102362, 3,5-Dimethyl-benzoic acid N-tert-butyl-N′-(3-isopropyl-2-methyl-benzoyl)-hydrazide]
EC50 (CfEcR-DEF mutant A110P): 0.77 µM | Emax (CfEcR-DEF mutant A110P; [2]): 64% | EC50 (CfEcR-DEF mutant A110W): 2.99 µM | Emax (CfEcR-DEF mutant A110W; [2]): 55% | EC50 (CfEcR-DEF mutant F109L): ~2.5 µM | Emax (CfEcR-DEF mutant F109L; [2]): 17% | EC50 (CfEcR-DEF mutant L234I): 2.46 µM | Emax (CfEcR-DEF mutant L234I; [2]): 44% | EC50 (CfEcR-DEF mutant M125C; EC50, mutant M125C): ≥ 33 µM | Emax (CfEcR-DEF mutant M125C; [2]): 15% | EC50 (CfEcR-DEF mutant M125L): > 33 µM | Emax (CfEcR-DEF mutant M125L; [2]): 1% | EC50 (CfEcR-DEF mutant M54T): 0.05 µM | Emax (CfEcR-DEF mutant M54T; [2]): 66% | EC50 (CfEcR-DEF mutant M54W): 1.24 µM | Emax (CfEcR-DEF mutant M54W; [2]): 44% | EC50 (CfEcR-DEF mutant M92E): > 33 µM | Emax (CfEcR-DEF mutant M92E; [2]): 4% | EC50 (CfEcR-DEF mutant M92L): ~20 µM | Emax (CfEcR-DEF mutant M92L; [2]): 5% | EC50 (CfEcR-DEF mutant R95H): 3.49 µM | Emax (CfEcR-DEF mutant R95H; [2]): 62% | EC50 (CfEcR-DEF mutant T52E): 7.16 µM | Emax (CfEcR-DEF mutant T52E; [2]): 34% | EC50 (CfEcR-DEF mutant T52L): 0.33 µM | Emax (CfEcR-DEF mutant T52L; [2]): 61% | EC50 (CfEcR-DEF mutant V96S): 2.07 µM | Emax (CfEcR-DEF mutant V96S; [2]): 57% | EC50 (CfEcR-DEF mutant W238P): 0.29 µM | Emax (CfEcR-DEF mutant W238P; [2]): 40% | EC50 (CfEcR-DEF mutant Y120W): 4.96 µM | Emax (CfEcR-DEF mutant Y120W; [2]): 67% | EC50 (CfEcR-DEF mutant A110N): 0.72 µM | Emax (CfEcR-DEF mutant A110N; [2]): 86% | EC50 (CfEcR-DEF mutant W238E): 3.45 µM | Emax (CfEcR-DEF mutant W238E; [2]): 45% | Emax (CfEcR-DEF mutant L132M): 1% | Emax (CfEcR-DEF mutant L132M; [3]): 66%

CC(C)(O)CC[C@@H](O)[C@](C)(O)[C@H]1CC[C@@]2(O)C3=CC(=O)[C@@H]4C[C@@H](O)[C@@H](O)C[C@]4(C)[C@H]3CC[C@]12C [20E, 20-hydroxyecdysone]
EC50 (CfEcR-DEF mutant A110P; mutant A110P, read-out: EC50): > 33 µM | Rel Max FI (CfEcR-DEF mutant A110P; mutant A110P, relative to max fold induction of GS-E ligand): 0 | Rel Max FI (CfEcR-DEF mutant A110W; mutant A110W): 0 | EC50 (CfEcR-DEF mutant A110W; mutant A110W, read-out: EC50): > 33 µM | Rel Max FI (CfEcR-DEF mutant F109L; mutant F109L): 0.09 | EC50 (CfEcR-DEF mutant F109L; mutant F109L, read-out: EC50): > 33 µM | Rel Max FI (CfEcR-DEF mutant L234I; mutant L234I): 0 | EC50 (CfEcR-DEF mutant L234I; mutant L234I, read-out: EC50): > 33 µM | Rel Max FI (CfEcR-DEF mutant M125C; mutant M125C): 0.22 | Rel Max FI (CfEcR-DEF mutant M125L; mutant M125L): 0 | EC50 (CfEcR-DEF mutant M125L; mutant M125L, read-out: EC50): > 33 µM | EC50 (CfEcR-DEF mutant M54T; mutant M54T, read-out: EC50): > 33 µM | Rel Max FI (CfEcR-DEF mutant M54T; mutant M54T, relative to max fold induction of GS-E ligand): 0 | Rel Max FI (CfEcR-DEF mutant M54W; mutant M54W): 0 | EC50 (CfEcR-DEF mutant M54W; mutant M54W, read-out: EC50): > 33 µM | Rel Max FI (CfEcR-DEF mutant M92E; mutant M92E): 0 | EC50 (CfEcR-DEF mutant M92E; mutant M92E, read-out: EC50): > 33 µM | Rel Max FI (CfEcR-DEF mutant M92L; mutant M92L): 0 | EC50 (CfEcR-DEF mutant M92L; mutant M92L, read-out: EC50): > 33 µM | Rel Max FI (CfEcR-DEF mutant R95H; mutant R95H): 0 | EC50 (CfEcR-DEF mutant R95H; mutant R95H, read-out: EC50): > 33 µM | Rel Max FI (CfEcR-DEF mutant T52E; mutant T52E): 0 | EC50 (CfEcR-DEF mutant T52E; mutant T52E, read-out: EC50): > 33 µM | EC50 (CfEcR-DEF mutant T52L; mutant T52L, read-out: EC50): > 33 µM | Rel Max FI (CfEcR-DEF mutant T52L; mutant T52L, relative to max fold induction of GS-E ligand): 0 | Rel Max FI [1]: 0 | EC50 ([1]; read-out: EC50): > 33 µM | Rel Max FI [1, 3]: 0.00 | EC50 (CfEcR-DEF mutant V96S; mutant V96S, read-out: EC50): > 33 µM | Rel Max FI (CfEcR-DEF mutant V96S; mutant V96S, relative to max fold induction of GS-E ligand): 0.02 | EC50 (CfEcR-DEF mutant W238P; mutant W238P, read-out: EC50): > 33 µM | Rel Max FI (CfEcR-DEF mutant W238P; mutant W238P, relative to max fold induction of GS-E ligand): 0 | Rel Max FI (CfEcR-DEF mutant Y120W; mutant Y120W): 0 | EC50 (CfEcR-DEF mutant Y120W; mutant Y120W, read-out: EC50): > 33 µM | EC50 (CfEcR-DEF mutant A110N; mutant A110N, read-out: EC50): > 33 µM | Rel Max FI (CfEcR-DEF mutant A110N; mutant A110N, relative to max fold induction of GS-E ligand): 0 | Rel Max FI (CfEcR-DEF mutant W238E; mutant W238E): 0 | EC50 (CfEcR-DEF mutant W238E; mutant W238E, read-out: EC50): > 33 µM | EC50 (CfEcR-DEF mutant L132M; mutant L132M): > 33 µM | Rel Max FI (CfEcR-DEF mutant L132M; mutant L132M): 0.01 | Rel Max FI (CfEcR-DEF mutant L132M; mutant L132M, relative to max fold induction of GS-E ligand): 0
